Read-outs that look alike come from different tables or passages of the source.

The subject of one assay is SW480 cells. Nature of the assay: MTS cell viability assay, SW480. It is filed as cell-based. Conditions: Homo sapiens, SW480, 72 h, mean ± SD (n = 3), Table 4, read-out: MTS cell viability IC50, Wnt hyperactive SW480 Cells (converted). The method, then:
MTS Cell Viability Assay. Colorectal cancer cells (SW480 and HCT116), TNBC cells (MDA-MB-231, MDA-MB-468, and BT-20), and lung cancer A549 cells were seeded in 96-well plates at 5×10^3 cells/well, maintained overnight at 37° C., and incubated with the tested compounds at various concentrations. Cell viability was monitored after 72 h using a freshly prepared mixture of 1 part phenazine methosulfate (PMS, Sigma) solution (0.92 mg/mL) and 19 parts 3-(4,5-dimethylthiazol-2-yl)-5-(3-carboxymethoxyphenyl)-2-(4-sulfophenyl)-2H-tetrazolium (MTS, Promega) solution (2 mg/mL). Cells were incubated in 10 μL of this solution at 37° C. for 3 h, and A490 was measured. The effect of each compound is expressed as the concentration required to reduce A490 by 50% (IC50) relative to DMSO-treated cells. Experiments were performed in triplicate.

Assay [1] concerns the target T1, β-catenin/Tcf protein-protein interaction (Homo sapiens, UniProt P35222).
T1 construct: Wild-type β-catenin (residues 138-781) were cloned into a pET-28b vector; 6×histidine (C); made in house; host or cells: E. coli BL21 DE3
T1 sequence (P35222 138-781): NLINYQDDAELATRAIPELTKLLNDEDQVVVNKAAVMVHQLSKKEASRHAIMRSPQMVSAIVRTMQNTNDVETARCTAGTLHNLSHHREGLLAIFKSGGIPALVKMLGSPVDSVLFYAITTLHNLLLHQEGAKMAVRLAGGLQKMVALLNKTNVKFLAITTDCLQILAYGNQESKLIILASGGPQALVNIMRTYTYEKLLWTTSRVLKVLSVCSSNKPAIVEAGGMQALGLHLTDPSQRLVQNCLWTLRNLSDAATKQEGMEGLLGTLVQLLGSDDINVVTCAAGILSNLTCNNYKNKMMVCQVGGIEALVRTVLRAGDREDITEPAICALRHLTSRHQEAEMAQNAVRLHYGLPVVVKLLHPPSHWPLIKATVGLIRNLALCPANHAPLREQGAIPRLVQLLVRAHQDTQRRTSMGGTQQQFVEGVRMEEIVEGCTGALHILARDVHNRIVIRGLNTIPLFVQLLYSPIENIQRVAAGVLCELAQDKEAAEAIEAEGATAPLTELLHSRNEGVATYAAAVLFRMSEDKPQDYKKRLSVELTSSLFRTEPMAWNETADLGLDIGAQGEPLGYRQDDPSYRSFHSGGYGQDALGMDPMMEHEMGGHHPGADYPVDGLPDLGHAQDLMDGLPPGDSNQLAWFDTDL
Nature of the assay: FP competitive inhibition assay. It is filed as binding. The method, boiled down:
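His-tagged human β-catenin (residues 138-781, E. coli-expressed) at 10 nM with 2.5 nM fluorescein-labeled Tcf4 (7-51) in PBS-type buffer with bovine γ-globulin and 0.01% Triton X-100. Compounds added, 1.5 h at 4 °C, 1% DMSO, before fluorescence polarization read. IC50 by nonlinear fit; Ki derived from IC50.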

The mark [2] stands for this setting: Assay 1, mean ± SD (n = 3), read-out: Ki ± SD, Assay 1.
Setting [3] is: Assay 2, mean ± SD (n = 3), read-out: Ki ± SD, Assay 2.

In general, IC50 refers to the concentration that gives 50% inhibition. Turning to `COC(=O)CCn1c(CCc2nc3ccccc3s2)c(CCc2ccc(Cl)cc2)c2cc(C(=O)OC)ccc21` [Compound 43, Methyl 2-(2-(benzo[d]thiazol-2-yl)ethyl)-3-(4-chlorophenethyl)-1-(3-methoxy-3-oxopropyl)-1H-indole-5-carboxylate], the IC50 in the assay on SW480 cells is more than 400 µM.
Broadly, the Ki is the equilibrium dissociation constant of an inhibitor or competing ligand from its target. With `COc1ccc2sc(CCc3c(CCc4ccc(Cl)cc4)c4cc(C(=O)NCc5ccc(Cl)cc5)ccc4n3CCc3nn[nH]n3)nc2c1` [Compound 48, 1-(2-(2H-tetrazol-5-yl)ethyl)-N-(4-chlorobenzyl)-3-(4-chlorophenethyl)-2-(2-(5-methoxybenzo-[d]thiazol-2-yl)ethyl)-1H-indole-5-carboxamide], the Ki in assay [1] (setting [2]) was 2.4 ± 0.56 µM; in assay [1] (setting [3]), 3.2 ± 0.24 µM. Besides, the IC50 in the assay on SW480 cells is 9.3 ± 4.9 µM.
For `COc1ccc2nc(C#Cc3c(CCc4ccc(Cl)cc4)c4cc(C(=O)O)ccc4n3CCc3nn[nH]n3)sc2c1` [Compound 72, 1-(2-(2H-tetrazol-5-yl)ethyl)-3-(4-chlorophenethyl)-2-((6-methoxybenzo[d]thiazol-2-yl)ethynyl)-1H-indole-5-carboxylic acid], the Ki in assay [1] (setting [2]) came to 0.6 ± 0.039 µM.
For `COc1ccc2nc(C#Cc3c(CCc4ccc(C)cc4)c4cc(C(=O)O)ccc4n3CCc3nn[nH]n3)sc2c1` [Compound 73, 1-(2-(2H-tetrazol-5-yl)ethyl)-2-((6-methoxybenzo[d]thiazol-2-yl)ethynyl)-3-(4-methylphenethyl)-1H-indole-5-carboxylic acid], the Ki in assay [1] (setting [2]) was 1 ± 0.076 µM.
As for `COc1ccc2nc(C#Cc3c(CCC4CCOCC4)c4cc(C(=O)O)ccc4n3CCc3nn[nH]n3)sc2c1` [Compound 74, 1-(2-(2H-tetrazol-5-yl)ethyl)-2-((6-methoxybenzo[d]thiazol-2-yl)ethynyl)-3-(2-(tetrahydro-2H-pyran-4-yl)ethyl)-1H-indole-5-carboxylic acid], the Ki is 4.2 ± 0.29 µM in assay [1] (setting [2]) and 6 ± 0.39 µM in assay [1] (setting [3]).
For the compound `COc1ccc2nc(C#Cc3c(CCc4ccc5c(c4)OCCO5)c4cc(C(=O)O)ccc4n3CCc3nn[nH]n3)sc2c1` [Compound 75, 1-(2-(2H-tetrazol-5-yl)ethyl)-3-(2-(2,3-dihydrobenzo[b][1,4]dioxin-6-yl)ethyl)-2-((6-methoxybenzo[d]thiazol-2-yl)ethynyl)-1H-indole-5-carboxylic acid], the Ki in assay [1] (setting [2]) was 1.8 ± 0.11 µM; in assay [1] (setting [3]) it was 0.68 ± 0.059 µM.
On to `Cc1ccc(CCc2c(-c3cccs3)n(CCc3nn[nH]n3)c3ccc(C(=O)O)cc23)cc1` [Compound 77, 1-(2-(2H-tetrazol-5-yl)ethyl)-3-(4-methylphenethyl)-2-(thiophen-2-yl)-1H-indole-5-carboxylic acid], for which the Ki in assay [1] (setting [2]) was 1.6 ± 0.11 µM.
Consider `Cc1ccc(CCc2c(-c3csc4ccccc34)n(CCc3nn[nH]n3)c3ccc(C(=O)O)cc23)cc1` [Compound 79, 1-(2-(2H-tetrazol-5-yl)ethyl)-2-(benzo[b]thiophen-3-yl)-3-(4-methylphenethyl)-1H-indole-5-carboxylic acid], for which the results for the Ki in assay [1] (setting [2]) and in assay [1] (setting [3]) were 0.57 ± 0.052 µM and 0.7 ± 0.06 µM, respectively.
Take `Cc1ccc(CCc2c(-c3csc(C(F)F)c3)n(CCc3nn[nH]n3)c3ccc(C(=O)O)cc23)cc1` [Compound 80, 1-(2-(2H-tetrazol-5-yl)ethyl)-2-(5-(difluoromethyl)thiophen-3-yl)-3-(4-methylphenethyl)-1H-indole-5-carboxylic acid]: the Ki in assay [1] (setting [2]) came to 0.92 ± 0.1 µM; in assay [1] (setting [3]), 1.9 ± 0.13 µM.
As for `Cc1ccc(CCc2c(-c3cc[nH]c3)n(CCc3nn[nH]n3)c3ccc(C(=O)O)cc23)cc1` [Compound 81, 1-(2-(2H-tetrazol-5-yl)ethyl)-3-(4-methylphenethyl)-2-(1H-pyrrol-3-yl)-1H-indole-5-carboxylic acid], the Ki in assay [1] (setting [2]) worked out at 1.2 ± 0.28 µM; in assay [1] (setting [3]), 3.2 ± 0.79 µM.
With `Cc1ccc(CCc2c(-c3cccnc3)n(CCc3nn[nH]n3)c3ccc(C(=O)O)cc23)cc1` [Compound 82, 1-(2-(2H-tetrazol-5-yl)ethyl)-3-(4-methylphenethyl)-2-(pyridin-3-yl)-1H-indole-5-carboxylic acid], the inhibition constant (Ki) came out at 8.4 ± 0.58 µM in assay [1] (setting [2]) and 30 ± 1.9 µM in assay [1] (setting [3]).
For the compound `Cc1ccc(CCc2c(-c3ccncc3)n(CCc3nn[nH]n3)c3ccc(C(=O)O)cc23)cc1` [Compound 83, 1-(2-(2H-tetrazol-5-yl)ethyl)-3-(4-methylphenethyl)-2-(pyridin-4-yl)-1H-indole-5-carboxylic acid], the Ki in assay [1] (setting [2]) came out at 20 ± 1.1 µM.
Take `O=C(O)c1ccc2c(c1)c(CCC1CCCCC1)c(-c1ccsc1)n2CCc1nn[nH]n1` [Compound 85, 1-(2-(2H-tetrazol-5-yl)ethyl)-3-(2-cyclohexylethyl)-2-(thiophen-3-yl)-1H-indole-5-carboxylic acid]: the Ki in assay [1] (setting [2]) was determined as 0.81 ± 0.052 µM; in assay [1] (setting [3]), 8.2 ± 0.19 µM; in assay [1] (Assay 3, mean ± SD (n = 3), read-out: Ki ± SD, Assay 3) it was 0.52 ± 0.048 µM.
As for `O=C(O)c1ccc2c(c1)c(CCC1CCOCC1)c(-c1ccsc1)n2CCc1nn[nH]n1` [Compound 86, 1-(2-(2H-tetrazol-5-yl)ethyl)-3-(2-(tetrahydro-2H-pyran-4-yl)ethyl)-2-(thiophen-3-yl)-1H-indole-5-carboxylic acid], the Ki in assay [1] (setting [2]) turned out to be 1.3 ± 0.4 µM; in assay [1] (setting [3]), 1.2 ± 0.23 µM.
Consider `O=C(O)c1ccc2c(c1)c(CCc1ccc3c(c1)OCCO3)c(-c1ccsc1)n2CCc1nn[nH]n1` [Compound 87, 1-(2-(2H-tetrazol-5-yl)ethyl)-3-(2-(2,3-dihydrobenzo[b][1,4]dioxin-6-yl)ethyl)-2-(thiophen-3-yl)-1H-indole-5-carboxylic acid], for which the values for the Ki in assay [1] (setting [2]) and in assay [1] (setting [3]) were 3.4 ± 0.86 µM and 1.3 ± 0.066 µM, respectively.
For the compound `Cc1ccc(CCc2c(-c3ccsc3)n(CCc3nn[nH]n3)c3ccc(C(N)=O)cc23)cc1` [Compound 88, 1-(2-(2H-tetrazol-5-yl)ethyl)-3-(4-methylphenethyl)-2-(thiophen-3-yl)-1H-indole-5-carboxamide], the values for the Ki in assay [1] (setting [2]) and in assay [1] (setting [3]) were 16 ± 0.71 µM and approximately 24 µM, respectively.
As for `CNC(=O)c1ccc2c(c1)c(CCc1ccc(C)cc1)c(-c1ccsc1)n2CCc1nn[nH]n1` [Compound 89, 1-(2-(2H-tetrazol-5-yl)ethyl)-N-methyl-3-(4-methylphenethyl)-2-(thiophen-3-yl)-1H-indole-5-carboxamide], the Ki in assay [1] (setting [2]) is more than 24 µM.
The same measure, in the same setting: the value for `CONC(=O)c1ccc2c(c1)c(CCc1ccc(C)cc1)c(-c1ccsc1)n2CCc1nn[nH]n1` [Compound 91, 1-(2-(2H-tetrazol-5-yl)ethyl)-N-methoxy-3-(4-methylphenethyl)-2-(thiophen-3-yl)-1H-indole-5-carboxamide] was 31 ± 5.8 µM.
`O=C(NCc1ccon1)c1ccc2c(c1)c(CCC1CCCCC1)c(-c1ccsc1)n2CCc1nn[nH]n1` [Compound 95, 1-(2-(2H-tetrazol-5-yl)ethyl)-3-(2-cyclohexylethyl)-N-(isoxazol-3-ylmethyl)-2-(thiophen-3-yl)-1H-indole-5-carboxamide]: the values for the Ki in assay [1] (setting [2]) and in assay [1] (setting [3]) were 3.1 ± 0.068 µM and 15 ± 2.8 µM, respectively.
For the compound `O=C(NCc1ccon1)c1ccc2c(c1)c(CCC1CCOCC1)c(-c1ccsc1)n2CCc1nn[nH]n1` [Compound 96, 1-(2-(2H-tetrazol-5-yl)ethyl)-N-(isoxazol-3-ylmethyl)-3-(2-(tetrahydro-2H-pyran-4-yl)ethyl)-2-(thiophen-3-yl)-1H-indole-5-carboxamide], the Ki in assay [1] (setting [2]) and in assay [1] (setting [3]) was more than 25 µM in each case.
For `Cc1ccc(CCc2c(-c3cn[nH]c3)n(CCc3nn[nH]n3)c3ccc(C(=O)NCc4ccon4)cc23)cc1` [Compound 97, 1-(2-(2H-tetrazol-5-yl)ethyl)-N-(isoxazol-3-ylmethyl)-3-(4-methylphenethyl)-2-(1H-pyrazol-4-yl)-1H-indole-5-carboxamide], the Ki in assay [1] (setting [2]) stood at 17 ± 1.6 µM.

(Values after US11530186B2, “Inhibitors for the β-catenin / T-cell factor protein-protein interaction” (H. LEE MOFFITT CANCER CENTER AND RESEARCH INSTITUTE, INC., priority 2018, dated 2022).)
